# From patent US20120028897A1, “METHODS AND COMPOSITIONS FOR THE TREATMENT OF FLUID RETENTION DISORDERS” (priority 2008, published 2012)
# Entries after “also recorded” stand apart in the source; their conditions may differ.
# Columns and labels:
# anesthetized rats [1] = experiment: Glomerular filtration rate (FITC-inulin clearance) during and after iv peptide infusion; assay type: in vivo, rat
# Procedure: (§1) All rats received a continuous intravenous infusion (10 μl/min/100 g BW) of isotonic saline containing FITC-labeled inulin for measurement of inulin clearance. Uncongugated FITC label and small inulin polymers were removed from the inulin solution by overnight dialysis against isotonic saline (SpectraPor 6 dialysis membrane, 1 kDa cutoff-limit, Spectrum Laboratories, Rancho Domingo, Calif.). Undissolved particulates were removed from the solution by filtration through a […] filter before each experiment (Steriflip, Millipore Inc. Billerica, Mass.). At least one hr was allowed for equilibration before the start of urine collections, at which point plasma inulin concentration had stabilized at an average value of 30±3 μg/ml.
# (§2) Arterial blood pressure was measured with a pressure transducer connected to a cardiovascular analyzer (Model 50110, Stoelting Instruments Wood Dale, Ill.). Left renal blood flow was measured in some rats with a flow probe positioned on the left renal artery and connected to a blood flow monitor (model 1 PRB probe and model T420 monitor, Transonic Systems Inc. Ithaca N.Y.). Arterial pressure, heart rate, and renal blood flow were digitized with an A/D converter (Keithley instruments, Cleveland, Ohio Model KUSB 3100) for display and storage on a Windows-based personal computer using open layers data acquisition software (Dtx_Ez, Data Translation Inc, Marlboro, Mass.). Sodium and potassium concentrations in plasma and urine were measured by flame photometry (Model 943, Instrumentation Laboratory Co., Lexington Mass.). Glomerular filtration rate (GFR) was measured as the renal clearance rate of FITC-labeled inulin
# (§3) After post-surgical equilibration (−60 min) and three 20 min control clearance periods, huUgnA or B was infused into the jugular vein at 10 μl/min over a 60 min period, followed by a return to isotonic saline for the remainder of the experiment. The infused doses of huUgnA were 12, 25, 50, 100, or 200 nmol/kg BW in a total of 38 rats; huUgnB doses were 9, 18, 35, 70, and 140 nmol/kg BW in 35 rats. A UgnA mimetic, E. coli STh (ST-core), was infused into a third group of 32 rats at doses of 17, 32, 66, 133, and 266 nmol/kg. Renal excretory responses to these infusions were slow to develop and long lasting, so clearance periods were continued for 2-3 hr after the termination of the peptide infusion. This protracted time course limited protocols to one dose of one peptide in each rat. A control group of 10 rats received isotonic saline at 10 μl/min in place of the peptide infusion, but was otherwise treated in the same way as the experimental groups.
# This assay was based on the method described by Lorenz and Gruenstein. Urine samples were diluted with hepes-buffered saline (3, 5, 10, or 20 fold, based on urine flow) to neutralize the pH and bring the intensity of FITC emissions into detector range. Small volumes (3-5 μl) of diluted urine and undiluted plasma samples were drawn into constant bore capillary tubes (10 μl Microcap tubes, Drummond Scientific Company, Broomall Pa.) and sealed at each end with water-saturated mineral oil. FITC emission intensity was measured by imaging each sample at 10× magnification with an epifluorescence microscope (Axiovert S100TV, Carl Zeiss Inc. Thornwood, N.Y.) fitted with a CCD camera (Orca II, Hamamatsu Inc. Bridgewater, N.J.) controlled by Metamorph imaging software (Molecular Devices, Sunnyvale, Calif.). Fluorescence intensities were measured as mean pixel intensity obtained from a consistent central region of each sample during a 25 or 500 msec exposure for urine and plasma, respectively. Background intensities were measured in the same way using bladder urine and tail vein plasma collected from the same rat before the beginning of inulin infusion. Inulin concentrations in plasma and urine samples were calculated from a standard curve prepared from the infusion solution used in each experiment. […]
# anesthetized rats [2] = experiment: Renal sodium excretion during and after iv peptide infusion in anesthetized rats; assay type: in vivo, rat
# Procedure: Rats were not fasted prior to clearance experiments and ranged in weight from 250-340 g at the time of study. Anesthesia was induced with an intraperitoneal injection of pentobarbital sodium (55 mg/kg BW) and maintained at a surgical plane by intermittent intravenous supplementation. Core temperature was maintained at 37° C. by a servo-controlled, heated operating table. Animals breathed spontaneously through a PE240 cannula inserted into the trachea. A jugular vein was catheterized with PE50 cannula tubing for intravenous infusion of isotonic saline containing FITC-labeled inulin (0.4% W/V, Sigma, St Louis Mo.) and two PE10 cannulae, one for supplemental anesthetic and the other for peptide infusions (described below in the experimental protocol section). The ureters were exposed through a midline ventral incision and cannulated with PE10 tubing about one cm from each kidney. Urine was collected over 20 min periods and the volume estimated by weight. A femoral artery was cannulated with PE50 tubing for continuous measurement of arterial blood pressure and intermittent blood samples (50 μl), taken at the mid point of each urine collection.
# as §1, §2, §3
# The effects of combined infusions of huUgnA and B were investigated in two groups of rats that received 35 nmol/kg of huUgnB together with either 25 nmol/kg (n=5) or 100 nmol/kg of huUgnA (n=5). […]
# [3] = huUgnB 35 nmol, Post-infuse, *** p<0.005 vs time control
compound,measurement,setting,value
"CC(C)C[C@H](NC(=O)[C@@H]1CSSC[C@@H]2NC(=O)[C@H](CC(C)C)NC(=O)[C@H](CCC(=O)O)NC(=O)[C@@H](NC(=O)[C@H](CC(=O)O)NC(=O)[C@H](CC(=O)O)NC(=O)[C@@H](N)CC(N)=O)CSSC[C@H](NC(=O)[C@H](C)NC(=O)[C@H](C(C)C)NC(=O)[C@H](CC(N)=O)NC(=O)[C@H](C(C)C)NC2=O)C(=O)N[C@@H]([C@@H](C)O)C(=O)NCC(=O)N1)C(=O)O (single isomer, unassigned) [huUgnB, Asn Asp Asp Cys Glu Leu Cys Val Asn Val Ala Cys Thr Gly Cys Leu]",GFR (glomerular filtration rate),"anesthetized rats [1]; huUgnB 9 nmol, Infusion",918 ± 66 μl/min/g KW
same,GFR (glomerular filtration rate),"anesthetized rats [1]; huUgnB 9 nmol, Post-infuse",947 ± 60 μl/min/g KW
same,GFR (glomerular filtration rate),"anesthetized rats [1]; huUgnB 9 nmol, Pre-infuse",921 ± 57 μl/min/g KW
same,GFR (glomerular filtration rate),"anesthetized rats [1]; huUgnB 18 nmol, Infusion",936 ± 76 μl/min/g KW
same,GFR (glomerular filtration rate),"anesthetized rats [1]; huUgnB 18 nmol, Post-infuse",877 ± 80 μl/min/g KW
same,GFR (glomerular filtration rate),"anesthetized rats [1]; huUgnB 18 nmol, Pre-infuse",890 ± 55 μl/min/g KW
same,GFR (glomerular filtration rate),"anesthetized rats [1]; huUgnB 35 nmol, Infusion",830 ± 48 μl/min/g KW
same,GFR (glomerular filtration rate),"anesthetized rats [1]; huUgnB 35 nmol, Post-infuse",870 ± 53 μl/min/g KW
same,GFR (glomerular filtration rate),"anesthetized rats [1]; huUgnB 35 nmol, Pre-infuse",866 ± 64 μl/min/g KW
same,GFR (glomerular filtration rate),"anesthetized rats [1]; huUgnB 70 nmol, Infusion",867 ± 86 μl/min/g KW
same,GFR (glomerular filtration rate),"anesthetized rats [1]; huUgnB 70 nmol, Post-infuse",876 ± 26 μl/min/g KW
same,GFR (glomerular filtration rate),"anesthetized rats [1]; huUgnB 70 nmol, Pre-infuse",883 ± 95 μl/min/g KW
same,GFR (glomerular filtration rate),"anesthetized rats [1]; huUgnB 140 nmol, Infusion",788 ± 67 μl/min/g KW
same,GFR (glomerular filtration rate),"anesthetized rats [1]; huUgnB 140 nmol, Post-infuse",924 ± 46 μl/min/g KW
same,GFR (glomerular filtration rate),"anesthetized rats [1]; huUgnB 140 nmol, Pre-infuse",858 ± 86 μl/min/g KW
same,"net cumulative sodium excretion, co-infusion",anesthetized rats [2]; huUgnA 25 nmol/kg combined with huUgnB 35 nmol/kg,did not produce an additive response; also recorded: not different from the natriuresis evoked by A25 or B35 alone
same,"net cumulative sodium excretion, co-infusion",anesthetized rats [2]; huUgnA 100 nmol/kg combined with huUgnB 35 nmol/kg,almost completely suppressed; also recorded: significantly less than the response to B35 alone
same,FENa (fractional sodium excretion),"anesthetized rats [2]; huUgnB 9 nmol, Infuse",0.09 ± 0.02 % of filtered
same,UNaV (sodium excretion),"anesthetized rats [2]; huUgnB 9 nmol, Infusion",134.6 ± 53 nEq/min/g KW
same,FENa (fractional sodium excretion),"anesthetized rats [2]; huUgnB 9 nmol, Post-infuse",0.21 ± 0.04 % of filtered
same,UNaV (sodium excretion),"anesthetized rats [2]; huUgnB 9 nmol, Post-infuse",195 ± 37 nEq/min/g KW
same,FENa (fractional sodium excretion),"anesthetized rats [2]; huUgnB 9 nmol, Pre-infuse",0.05 ± 0.01 % of filtered
same,UNaV (sodium excretion),"anesthetized rats [2]; huUgnB 9 nmol, Pre-infuse",67 ± 17 nEq/min/g KW
same,FENa (fractional sodium excretion),"anesthetized rats [2]; huUgnB 18 nmol, Infuse",0.12 ± 0.03 % of filtered
same,UNaV (sodium excretion),"anesthetized rats [2]; huUgnB 18 nmol, Infusion",155.2 ± 34 nEq/min/g KW
same,FENa (fractional sodium excretion),"anesthetized rats [2]; huUgnB 18 nmol, Post-infuse",0.42 ± 0.08 % of filtered
same,UNaV (sodium excretion),"anesthetized rats [2]; huUgnB 18 nmol, Post-infuse, *** p<0.005 vs time control",538 ± 81*** nEq/min/g KW
same,FENa (fractional sodium excretion),"anesthetized rats [2]; huUgnB 18 nmol, Pre-infuse",0.07 ± 0.01 % of filtered
same,UNaV (sodium excretion),"anesthetized rats [2]; huUgnB 18 nmol, Pre-infuse",83 ± 19 nEq/min/g KW
same,FENa (fractional sodium excretion),"anesthetized rats [2]; huUgnB 35 nmol, Infuse",0.27 ± 0.07 % of filtered
same,UNaV (sodium excretion),"anesthetized rats [2]; huUgnB 35 nmol, Infusion",229.4 ± 47 nEq/min/g KW
same,FENa (fractional sodium excretion),anesthetized rats [2]; [3],0.62 ± 0.10*** % of filtered
same,UNaV (sodium excretion),anesthetized rats [2]; [3],729 ± 73*** nEq/min/g KW
same,FENa (fractional sodium excretion),"anesthetized rats [2]; huUgnB 35 nmol, Pre-infuse",0.12 ± 0.02 % of filtered
same,UNaV (sodium excretion),"anesthetized rats [2]; huUgnB 35 nmol, Pre-infuse",132 ± 40 nEq/min/g KW
same,FENa (fractional sodium excretion),"anesthetized rats [2]; huUgnB 70 nmol, Infuse",0.24 ± 0.14 % of filtered
same,UNaV (sodium excretion),"anesthetized rats [2]; huUgnB 70 nmol, Infusion",285.7 ± 165 nEq/min/g KW
same,FENa (fractional sodium excretion),"anesthetized rats [2]; huUgnB 70 nmol, Post-infuse, * p<0.05 vs time control",0.52 ± 0.10* % of filtered
same,UNaV (sodium excretion),"anesthetized rats [2]; huUgnB 70 nmol, Post-infuse, *** p<0.005 vs time control",696 ± 151*** nEq/min/g KW
same,FENa (fractional sodium excretion),"anesthetized rats [2]; huUgnB 70 nmol, Pre-infuse",0.08 ± 0.03 % of filtered
same,UNaV (sodium excretion),"anesthetized rats [2]; huUgnB 70 nmol, Pre-infuse",87 ± 31 nEq/min/g KW
same,FENa (fractional sodium excretion),"anesthetized rats [2]; huUgnB 140 nmol, Infuse",0.18 ± 0.05 % of filtered
same,UNaV (sodium excretion),"anesthetized rats [2]; huUgnB 140 nmol, Infusion",212.1 ± 67 nEq/min/g KW
same,FENa (fractional sodium excretion),"anesthetized rats [2]; huUgnB 140 nmol, Post-infuse, ** p<0.01 vs time control",0.65 ± 0.11** % of filtered
same,UNaV (sodium excretion),"anesthetized rats [2]; huUgnB 140 nmol, Post-infuse, *** p<0.005 vs time control",906 ± 170*** nEq/min/g KW
same,FENa (fractional sodium excretion),"anesthetized rats [2]; huUgnB 140 nmol, Pre-infuse",0.08 ± 0.01 % of filtered
same,UNaV (sodium excretion),"anesthetized rats [2]; huUgnB 140 nmol, Pre-infuse",103 ± 8 nEq/min/g KW
same,"ED50, net cumulative sodium excretion over three hours","anesthetized rats [2]; infused over first hour, log agonist response curve, FIG. 6A",19 nmol/kg
same,"ED50, net cumulative sodium excretion","anesthetized rats [2]; log(agonist) vs response fit, p<0.02",about 20 nmol UgnB/kg BW
same,"UNaV time course, ANOVA vs control","anesthetized rats [2]; post infusion periods after 18, 35, 70, and 140 nmol/kg (p<0.001 for all)",significant natriuretic response
same,doses producing significant natriuresis (net excretory values),"anesthetized rats [2]; rat, in vivo",above 9 nmol
same,shape of natriuretic dose-response relationship,"anesthetized rats [2]; rat, in vivo",conventional
